Source: ChEMBL document CHEMBL5360558, “Molecular design, synthesis and anticancer activity of new thiopyrano[2,3-d]thiazoles based on 5-hydroxy-1,4-naphthoquinone (juglone)” (Eur J Med Chem, 2023)

How the values were obtained:
CCRF-CEM [1] = experiment: Induction of cell cycle arrest in human CCRF-CEM cells assessed as accumulation of cells at G2/M phase at 20.7 uM incubated for 24 hrs by propidium iodide staining based flow cytometry analysis (reference value: 20.24 +/- 0.25%); assay type: functional
RXF 393 = experiment: Growth inhibition against human RXF 393 cells assessed as lethal concentration incubated for 48 hrs by sulforhodamine B spectrophotometric assay; assay type: functional; settings: read-out: LC50 (the source's name)
NCI-H322M [2] = experiment: Growth inhibition against human NCI-H322M cells assessed as lethal concentration incubated for 48 hrs by sulforhodamine B spectrophotometric assay; assay type: functional; settings: read-out: LC50 (the source's name)
BT-549 = experiment: Anticancer activity against human BT-549 cells assessed as cell growth at 10 uM incubated for 48 hrs by sulforhodamine B assay; assay type: functional; settings: read-out: Activity
[3] = Acute toxicity in C57BL/6 mouse assessed as ratio of liver weight to body weight at 20 mg/kg,ip administration and observed after 22 days (reference value: 5.22 +/- 0.42); assay type: organism-based; settings: in vivo, 528 h, time 22 day
NCI-H322M [4] = experiment: Anticancer activity against human NCI-H322M cells assessed as cell growth at 10 uM incubated for 48 hrs by sulforhodamine B assay; assay type: functional; settings: read-out: Activity
SF-268 = experiment: Growth inhibition against human SF-268 cells assessed as total growth inhibitory concentration incubated for 48 hrs by sulforhodamine B spectrophotometric assay; assay type: functional
NCI/ADR-RES = experiment: Growth inhibition against human NCI-ADR-RES cells assessed as total growth inhibitory concentration incubated for 48 hrs by sulforhodamine B spectrophotometric assay; assay type: functional
LOX IMVI [5] = experiment: Growth inhibition against human LOX IMVI cells assessed as lethal concentration incubated for 48 hrs by sulforhodamine B spectrophotometric assay; assay type: functional; settings: read-out: LC50 (the source's name)
SR = experiment: Growth inhibition against human SR cells assessed as lethal concentration incubated for 48 hrs by sulforhodamine B spectrophotometric assay; assay type: functional; settings: read-out: LC50 (the source's name)
SW-620 = experiment: Growth inhibition of human SW620 cells incubated for 48 hrs by sulforhodamine B spectrophotometric assay; assay type: functional
RPMI-8226 = experiment: Growth inhibition against human RPMI-8226 cells assessed as total growth inhibitory concentration incubated for 48 hrs by sulforhodamine B spectrophotometric assay; assay type: functional
OVCAR-3 = experiment: Growth inhibition against human OVCAR-3 cells assessed as total growth inhibitory concentration incubated for 48 hrs by sulforhodamine B spectrophotometric assay; assay type: functional
NCI-H522 = experiment: Growth inhibition of human NCI-H522 cells incubated for 48 hrs by sulforhodamine B spectrophotometric assay; assay type: functional
LOX IMVI [6] = experiment: Growth inhibition of human LOX IMVI cells incubated for 48 hrs by sulforhodamine B spectrophotometric assay; assay type: functional
MDA-MB-231 = experiment: Induction of apoptosis in human MDA-MB-231 cells assessed as increase in caspase 3/7 activity at 5 uM incubated for 24 hrs by flow cytometry analysis; assay type: functional
NCI-H226 [7] = experiment: Growth inhibition against human NCI-H226 cells assessed as lethal concentration incubated for 48 hrs by sulforhodamine B spectrophotometric assay; assay type: functional; settings: read-out: LC50 (the source's name)
CCRF-CEM [8] = experiment: Induction of cell cycle arrest in human CCRF-CEM cells assessed as accumulation of cells at G2/M phase at 4.14 uM incubated for 24 hrs by propidium iodide staining based flow cytometry analysis (reference value: 20.24 +/- 0.25%); assay type: functional
NCI-H460 = experiment: Growth inhibition of human NCI-H460 cells incubated for 48 hrs by sulforhodamine B spectrophotometric assay; assay type: functional
ACHN = experiment: Growth inhibition against human ACHN cells assessed as total growth inhibitory concentration incubated for 48 hrs by sulforhodamine B spectrophotometric assay; assay type: functional
K562 = experiment: Cytotoxicity against human K562 cells assessed as cell growth inhibition incubated for 72 hrs by MTT assay; assay type: functional, cell-based; settings: K562, 72 h
NCI-H226 [9] = experiment: Growth inhibition against human NCI-H226 cells assessed as total growth inhibitory concentration incubated for 48 hrs by sulforhodamine B spectrophotometric assay; assay type: functional
[10] = Acute toxicity in C57BL/6 mouse assessed as change in hemoglobin level at 20 mg/kg,ip administration observed after 22 days; assay type: organism-based; settings: in vivo, 528 h, time 22 day
HOP-92 = experiment: Growth inhibition against human HOP-92 cells assessed as total growth inhibitory concentration incubated for 48 hrs by sulforhodamine B spectrophotometric assay; assay type: functional

O=C1C2=C(C(=O)c3c(O)cccc31)C(c1ccco1)c1sc(=O)[nH]c1S2 (centres undefined)
Activity (CCRF-CEM [1]): 22.09% | CC50 (RXF 393): 20.1 µM | CC50 (NCI-H322M [2]): 5.74 µM | growth at 10 µM (BT-549): -96.8% | Ratio [3]: 4.54 | growth at 10 µM (NCI-H322M [4]): -97.7% | TGI (SF-268): 19.2 µM | TGI (NCI/ADR-RES): 12.3 µM | CC50 (LOX IMVI [5]): 84 µM | CC50 (SR): > 100 µM | GI50 (SW-620): 3.28 µM | TGI (RPMI-8226): 9.83 µM | TGI (OVCAR-3): 14 µM | GI50 (NCI-H522): 2.31 µM | GI50 (LOX IMVI [6]): 2.21 µM | Activity (MDA-MB-231): 10.6% | CC50 (NCI-H226 [7]): 27.3 µM | Activity (CCRF-CEM [8]): 23.82% | GI50 (NCI-H460): 1.54 µM | TGI (ACHN): 16.1 µM | IC50 (K562): 5.98 µM | TGI (NCI-H226 [9]): 5.46 µM | Activity [10]: Non-Toxic | TGI (HOP-92): 8.08 µM
